Reference: patent US12139481B2, “Compositions comprising macrocycle derivatives incorporating bridged macrocycles and methods of producing and using same” (Southwestern Oklahoma State University, priority 2015, dated 2024)
Where two headings read alike, the source gives them in different places.

Tests used:
[1] = tested on: L. donovani promastigotes; test: Antileishmanial Alamar Blue assay on promastigotes; assay type: cell-based, Leishmania donovani; settings: for X more potent than Pentamidine: L. donovani, ratio of molar IC50 to Pentamidine; for L. donovani IC50 / IC50: promastigotes, 48 hours, Alamar Blue; for IC50: read-out: L. donavani IC50
How it was run: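 L. donovani promastigotes in RPMI 1640 with 10% FCS, from 3-day culture, were set at 5×10^5/mL and exposed to compound (50-3.1 μg/mL) for 48 hours at 26° C. Growth read by Alamar Blue fluorescence (ex 544/em 590 nm); IC50 from percent growth versus concentration.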

[2] = tested on: Plasmodium falciparum W2 clone (Indochina, chloroquine-resistant); test: In vitro antimalarial assay, chloroquine-resistant W2 clone; assay type: cell-based; settings: for X more potent than chloroquine: molar IC50 ratio versus chloroquine
Procedure: (§1) The compounds were assayed for in vitro antimalarial activity against the W2 clone and D6 clone of the pathogenic Plasmodium falciparum. The strains of P. falciparum were obtained from the Division of Experimental Therapeutics, Walter Reed Army Institute of Research, Washington D.C. Strains of Sierra Leon D6 and Indochina W2 are chloroquine-sensitive and chloroquine-resistant, respectively. The parasite was grown in type A human RBCs and, two strains subcultured daily with fresh medium and blood cells. On the day of the assay, a suspension of infected blood cells (2% parasitemia and 2% hematocrit) was prepared using type A human red blood cells. Assays were performed by standard 96-well flat-bottomed microplate methods and done in duplicate at different concentrations. IC50 values were obtained from the dose curves. Artemisinin and chloroquine were included in each assay as the drug controls, and DMSO was used as vehicle control. The whole protocol was developed based on the published method of Makler. The cytotoxicity assays were also performed in parallel against the Vero cells, and the selectivity index was measured. A selectivity index of >9 was considered to indicate a lead for further development of antimalarial drug.

[3] = tested on: Cryptococcus neoformans ATCC 90113; test: Antimicrobial microdilution assay against Cryptococcus neoformans (modified CLSI/NCCLS, optical density); assay type: cell-based; settings: for X more potent than Amphotericin B: C. neoformans, ratio of molar IC50 to Amphotericin B; for C. neoformans IC50 / IC50: in vitro, C. neoformans ATCC 90113; for IC50: read-out: C. neoformans IC50 (mol/L)
How it was run: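 Broth microdilution (modified CLSI) in RPMI pH 6.0, samples serially diluted in 20% DMSO/saline and tested in duplicate, growth followed by OD630 before and after incubation. MFC is the lowest concentration giving no growth when 5 μL from clear wells is plated on agar.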

[4] = tested on: Plasmodium falciparum D6 clone (Sierra Leon, chloroquine-sensitive); test: In vitro antimalarial assay, chloroquine-sensitive D6 clone; assay type: cell-based; settings: for X more potent than chloroquine: molar IC50 ratio versus chloroquine
Procedure: as §1

C. krusei ATCC 6258 = test: Antifungal broth dilution assay against C. krusei (modified CLSI); assay type: cell-based, Candida krusei; settings: for X more potent than Amphotericin B: C. krusei, ratio of molar IC50 to amphotericin B; for C. krusei IC50 / IC50: in vitro; for IC50: read-out: C. krusei IC50 (mol/L)
Procedure: (§2) General Experimental Procedures. All organisms were obtained from the American Type Culture Collection (Manassas, VA) and include the fungi Candida albicans ATCC 90028, C. glabrata ATCC 90030, C. krusei ATCC 6258, and Cryptococcus neoformans ATCC 90113, and the bacteria Staphylococcus aureus ATCC 29213 and methicillin-resistant S. aureus ATCC 33591 (MRS). All organisms were tested using modified versions of the CLSI (formerly NCCLS) methods. For all organisms, optical density was used to monitor growth (NCCLS, Reference Method for Broth Dilution Antifungal Susceptibility Testing of Yeasts; Approved Standard M27-A2. National Committee on Clinical Laboratory Standards, 2002 22 (15); and NCCLS, Methods for Dilution Antimicrobial Susceptibility Tests for Bacteria that Grow Aerobically; Approved Standard, Seventh Edition M7-A7. National Committee on Clinical Laboratory Standards, 2006. 26(2)).
(§3) Samples (dissolved in DMSO) were serially-diluted in 20% DMSO/saline and transferred (10 μL) in duplicate to 96 well flat bottom microplates. Inocula were prepared by correcting the OD630 of microbe suspensions in incubation broth [RPMI 1640/0.2% dextrose/0.03% glutamine/MOPS @ pH 6.0 (Cellgro) for Candida spp., Sabouraud Dextrose for C. neoformans, and cation-adjusted Mueller-Hinton (Difco) @ pH 7.3 for Staphylococcus spp. to afford an assay volume of […] and final target inocula of: Candida spp. and C. neoformans: 1.5×10^3, and Staphylococcus spp.: 5.0×10^5 CFU/ml. Final sample test concentrations were 1/100th the DMSO stock concentration. […] All organisms were read at either 530 nm using the Biotek Powerwave XS plate reader (Bio-Tek Instruments, Vermont) prior to and after incubation: Candida spp. at 35° C. for 46-50 h, Staphylococcus spp. at 35° C. for 16-20 h, and C. neoformans at 35° C. for 70-74 h. IC50s (concentrations that afford 50% inhibition relative to controls) were calculated using XLfit 4.2 software (IDBS, Alameda, CA) using fit model 201. The MIC is defined as the lowest test concentration that allows no detectable growth. Minimum fungicidal or bactericidal concentrations were determined by removing 5 μl from each clear (or blue) well, transferring to fresh media, and incubating as previously mentioned. The MFC/MBC is defined as the lowest test concentration that kills the organism (allows no growth).
(§4) Primary Analysis. Samples were tested in duplicate at one test concentration (50 μg/mL), and percent inhibitions were calculated relative to blank and growth controls. Samples showing 50% inhibition in at least one test organism were selected for dose response (Secondary) studies.
(§5) Secondary Analysis. Extracts from the Primary Assay, and first-run pure compounds and column fractions were tested in duplicate at 3 test concentrations (5-fold dilutions). Samples dissolved to 20 mg/mL in DMSO were tested at 200, 40, and 8 μg/mL. Samples dissolved to 2 mg/mL in DMSO were tested at 20, 4, and 0.8 μg/mL.

[5] = tested on: Staphylococcus aureus ATCC 29213; test: Antibacterial broth dilution assay against S. aureus (modified CLSI); assay type: cell-based
Procedure: as §2, §3, §4, §5

C. glabrata ATCC 90030 = test: Antifungal broth dilution assay against C. glabrata (modified CLSI); assay type: cell-based, Candida glabrata
Procedure: as §2, §3, §4, §5

[6] = W2 clone, converted with molecular weight, read-out: P. falciparum W2 IC50
[7] = D6 clone, converted with molecular weight, read-out: P. falciparum D6 IC50
[8] = in vitro, converted with molecular weight

Row | Molecule | X more potent than Pentamidine [1] | L. donovani IC50 [1] [µg/mL] | IC50 [1] [µM] | P. falciparum W2 IC50 ([2]; W2 clone) [µg/mL] | IC50 [2, 6] [nM] | X more potent than chloroquine ([2]; W2 clone) | X more potent than Amphotericin B [3] | C. neoformans IC50 [3] [µg/mL] | IC50 [3] [nM] | P. falciparum D6 IC50 ([4]; D6 clone) [µg/mL] | IC50 [4, 7] [nM] | X more potent than chloroquine ([4]; D6 clone) | also measured
1 | p-CB-homocyclens HCl salt [TA22C] | 0.30 | 16.31 | 17.6 | 0.3189 | 379 | 1.79 | 0.71 | 0.310 | 334 | 0.2596 | 308 | 0.12 | 
2 | m-CB-homocyclens HCl salt [OB65B] | 0.48 | 11.08 | 11.2 | 0.3783 | 382 | 1.78 | 1.47 | 0.160 | 162 | 0.2921 | 295 | 0.12 | 
3 | Clc1ccc2c(N3CCCNCCCNCCNCCC3)ccnc2c1 [K-JDD-0011-P36] |  |  |  | 0.5279 | 1400 | 0.48 |  |  |  | 0.0203 | 54 | 0.68 | 
4 | p-CB-cyclens HCl salt [OB15B] | 0.22 | 20.94 | 24 | 0.6558 | 1240 | 0.54 | 0.34 | 0.610 | 699 | 0.5799 | 1100 | 0.03 | 
5 | CN1CCN(c2ccnc3cc(Cl)ccc23)CCN(C)CCN(c2ccnc3cc(Cl)ccc23)CC1 [K-PAA-0012-P28] |  |  |  | 0.1992 | 380 | 1.78 |  |  |  | 0.1169 | 223 | 0.16 | 
6 | CC(=O)[O-].F[P-](F)(F)(F)(F)F.O.[Ni+2].c1ccc(CN2CCCNCCN(Cc3ccccc3)CCCNCC2)cc1 [BME06, [Ni(Bn2Cyclam)(OAc)]PF6•H2O] | 0.13 | 26.25 | 39.7 | 1.7132 | 2590 | 0.26 | 0.01 | 17.990 | 27200 | 0.7495 | 1130 | 0.03 | 
7 | Clc1ccc2c(N3CCNCCN(c4ccnc5cc(Cl)ccc45)CCNCC3)ccnc2c1.[Cl-].[Cl-].[Mn+2] [K-PAA2-0004-P8] |  |  |  | 0.0875 | 141 | 4.82 |  |  |  | 0.0750 | 120 | 0.30 | 
8 | CCN(CC)CCCC(C)Nc1ccnc2cc(Cl)ccc12 (stereo not shown) [CQ] |  |  |  |  |  | 1.00 |  |  |  |  |  | 1.00 | IC50 ([2]; Plasmodium falciparum, W2, read-out: P. falciparum W2 IC50 (mol/L)): 678 nM; IC50 ([2]; Plasmodium falciparum, W2, read-out: P. falciparum W2 IC50 (μg/mL)): 0.217 µg/mL; IC50 ([4]; Plasmodium falciparum, D6, read-out: P. falciparum D6 IC50 (mol/L)): 36.6 nM; IC50 ([4]; Plasmodium falciparum, D6, read-out: P. falciparum D6 IC50 (μg/mL)): 0.0117 µg/mL
9 | CN1CCN2CCN(CC1)CCN(Cc1nc3ccccc3n1Cc1ccc([N+](=O)[O-])cc1)CC2 [SJA230, CB-BINO2-cyclen] |  |  |  |  |  |  | 0.01 | 7.930 | 16600 |  |  |  | X more potent than Amphotericin B (C. krusei ATCC 6258): 0.09; C. krusei IC50 (C. krusei ATCC 6258): 7.690 µg/mL; IC50 (C. krusei ATCC 6258): 16.1 µM
10 | CC(=O)[O-].CC(=O)[O-].F[P-](F)(F)(F)(F)F.F[P-](F)(F)(F)(F)F.O.[Ni+2].[Ni+2].c1cc(CN2CCNCCN3CCN(CC3)CC2)cc(CN2CCNCCN3CCN(CC3)CC2)c1 [OB35, [Ni2(m-SB-Cyclens)(OAc)2][PF6]2•H2O] |  |  |  |  |  |  | 0.31 | ≤ 0.800 | 768 |  |  |  | X more potent than Amphotericin B (C. krusei ATCC 6258): 1.95; C. krusei IC50 (C. krusei ATCC 6258): 0.800 µg/mL; IC50 (C. krusei ATCC 6258): 0.768 µM
11 | Clc1ccc2c(N3CCNCCN(c4ccnc5cc(Cl)ccc45)CCNCC3)ccnc2c1.O.O.[Fe+3].[O-][Cl+3]([O-])([O-])[O-].[O-][Cl+3]([O-])([O-])[O-].[O-][Cl+3]([O-])([O-])[O-] [K-PAA-0016-P36, Fe-complex-4,10-bis(7-chloroquinoline)cyclen)Cl2] |  |  |  | 0.0336 | 37.9 | 17.88 | 0.22 | 0.940 | 1060 | 0.0196 | 22.1 | 1.65 | times more potent than chloroquine ([2]; chloroquine-resistant P. falciparum (W2 strain)): ~18
12 | CC(=O)[O-].F[P-](F)(F)(F)(F)F.[Co+2].c1ccc(CN2CCN3CCCN(CC2)CCN(Cc2ccccc2)CC3)cc1 [AW038, [Co(Bn2PBCyclen)(C2H3O2)]PF6] | 0.17 | 20.66 | 31.5 |  |  |  | 0.04 | 4.370 | 6670 |  |  |  | S. aureus IC50 ([5]; in vitro): 5.080 µg/mL; IC50 [5, 8]: 7.75 µM; X more potent than ciprofloxacen ([5]; molar IC50 ratio versus ciprofloxacen): 0.04; C. glabrata IC50 (C. glabrata ATCC 90030; in vitro): 5.800 µg/mL; IC50 (C. glabrata ATCC 90030; [8]): 8.85 µM; X more potent than Amphotericin B (C. glabrata ATCC 90030; molar IC50 ratio versus amphotericin B): 0.16
13 | CC(=O)[O-].CC(=O)[O-].F[P-](F)(F)(F)(F)F.F[P-](F)(F)(F)(F)F.O.O.[Cu+2].[Cu+2].c1cc(CN2CCNCCN3CCN(CC3)CC2)cc(CN2CCNCCN3CCN(CC3)CC2)c1 [OB34, [Cu2(m-SB-Cyclens)(OAc)2][PF6]2•2H2O] |  |  |  |  |  |  | 0.32 | ≤ 0.800 | 748 |  |  |  | X more potent than Amphotericin B (C. krusei ATCC 6258): 0.28; C. krusei IC50 (C. krusei ATCC 6258): 5.780 µg/mL; IC50 (C. krusei ATCC 6258): 5.4 µM
